Measured values published in patent US6894061B2, “Substituted dihydrophenanthridinesulfonamides” (Wyeth, priority 2002, dated 2005).
Like-named read-outs stand apart in the source and are kept apart here.

How the values were obtained:
ER/NF-κB = ER/NF-κB luciferase reporter in Ad5-wt-ERα infected HAECT-1 cells; format: cell-based, human; settings: Homo sapiens, HAECT1, IL-1β; for Emax: read-out: ER/NFκB Efficacy (%)*; for IC50: read-out: ER/NFκB IC50
creatine kinase = test: Creatine kinase (CK) test procedure in Ad5-wt-ERα infected HAECT-1 cells; format: cell-based, human; settings: Homo sapiens
IL-6 = IL-6 test procedure (IL-6 ELISA of media) in Ad5-wt-ERα infected HAECT-1 cells; format: cell-based, human; settings: Homo sapiens, HAECT1, IL-1β; for Emax: read-out: Interleukin-6 Efficacy (%); for IC50: read-out: Interleukin-6 IC50
Protocol: After four hours, cells were washed with EBM-BSA and incubated overnight in the same medium. Following overnight incubation, cells were washed with EBM-BSA and infected for 2 hours with 6 mL of a 1:10 dilution of Ad5-3x(NFκB).Luc virus (Adenovirus luciferase expression vector driven by 3 repeats of the MHC NFκb site 5′ to the thymidine kinase promoter) in EBM-BSA. After two hours, cells were washed and incubated at 34° C. for 1 hour. […] Control (no ER infection) cells were processed as above without Ad5-wt-hERα virus infection.
ERα infected HAECT-1 cells or control cells were thawed, diluted 42× in warm EBM-BSA, plated into 96-well plates at 0.1 mL/well and incubated for 4 hours at 34° C. Test compounds were added to the cells as 2× stocks in EBM-BSA containing 2 ng/mL IL-1β (R&D Systems) and the 96-well plates were returned to the incubator (34° C.). After 15-20 hours, 100 μL aliquots of media were removed from the cells and assayed for IL-6 content using a BioSource human IL-6 ELISA Kit. Cells were subsequently washed with 300 μL of Dulbecco's phosphate buffered saline and lysed in 50 μL of Cell Culture Lysis Reagent (Promega). Luciferase was determined on a Wallac Victor^2 Luminometer (Gaithersburg, Md.) using 10 μL of lysate and mixing with 100 μL of Promega Luciferase Assay reagent. Creatine kinase was determined from the rate of increase in A340 following addition of 100 μL of CK assay reagent (Sigma, cat. No 47-10) to the remainder of the cell lysate.
For IC50 and EC50 calculations, mean IL-6, luciferase or CK values versus log10 of the compound concentration were fitted to a four parameter logistic equation. The IC50/EC50 value, ‘Hill slope’, upper and lower limits of the curve were iteratively estimated.

[1] = HAECT1, Ad5-wt-ERα infected HAECT-1 cells, read-out: Creatin Kinase EC50
[2] = HAECT1, Ad5-wt-ERα infected HAECT-1 cells, read-out: Creatin Kinase Efficacy (%)

Row | Compound | Emax (ER/NF-κB) [%] | IC50 (ER/NF-κB) [nM] | EC50 (creatine kinase; [1]) [nM] | Emax (creatine kinase; [2]) [%] | Emax (IL-6) [%] | IC50 (IL-6) [nM] | melting point [°C] | Emax at 10 µM (creatine kinase; HAECT1, @10 μM, Ad5-wt-ERα infected HAECT-1 cells, read-out: Creatin Kinase Efficacy (%)) [%] | EC50 (creatine kinase; HAECT1, read-out: Creatin Kinase EC50) [nM]
1 | C[C@H]1c2cc(F)ccc2-c2ccccc2N1S(=O)(=O)c1ccc(O)cc1 [Example 33, 4-{[(S)-8-Fluoro-6-methylphenanthridin-5(6H)-yl]sulfonyl}phenol] | 99 | 33 | 91 | 21 | 108 | 23.4 | 193 |  | 
2 | C[C@@H]1c2cc(F)ccc2-c2ccccc2N1S(=O)(=O)c1ccc(O)cc1 [Example 34, 4-{[(R)-8-Fluoro-6-methylphenanthridin-5(6H)-yl]sulfonyl}phenol] | 89 | 2840 |  |  | 35 |  | 193 | < 35 | 
3 | CC1c2ccccc2-c2ccc(F)cc2N1S(=O)(=O)c1ccc(O)cc1 (stereo not drawn) [Example 105, 4-[(3-Fluoro-6-methylphenanthridin-5(6H)-yl)sulfonyl]phenol] |  |  | 32 | 17 | > 100 | 92 | 162 to 165 |  | 
4 | CC1c2ccccc2-c2ccc(F)cc2N1S(=O)(=O)c1cccc(O)c1 (stereo not drawn) [Example 106, 3-[(3-Fluoro-6-methylphenanthridin-5(6H)-yl)sulfonyl]phenol] |  |  | 1420 | 22 | 104 | 43 | 164 to 167 |  | 
5 | C[C@@H]1c2ccccc2-c2ccc(F)cc2N1S(=O)(=O)c1ccc(O)cc1O [Example 110, 4-{[(6R)-3-Fluoro-6-methylphenanthridin-5(6H)-yl]sulfonyl}benzene-1,3-diol] |  |  | 954 | -7 | 38 | 2340 | 150 to 152 |  | 
6 | C[C@H]1c2ccccc2-c2ccc(F)cc2N1S(=O)(=O)c1ccc(O)cc1O [Example 111, 4-{[(6S)-3-Fluoro-6-methylphenanthridin-5(6H)-yl]sulfonyl}benzene-1,3-diol] |  |  | 102 | 33 | 114 | 22 | 151 to 153 |  | 
7 | CC1c2ccccc2-c2cc(F)ccc2N1S(=O)(=O)c1ccc(O)cc1 (stereo not drawn) [Example 112, 4-[(2-Fluoro-6-methylphenanthridin-5(6H)-yl)sulfonyl]phenol] |  |  | 337 | 1 | 100 | 175 | 216 to 218 |  | 
8 | CC1c2ccccc2-c2cc(F)ccc2N1S(=O)(=O)c1cccc(O)c1 (stereo not drawn) [Example 113, 3-[(2-Fluoro-6-methylphenanthridin-5(6H)-yl)sulfonyl]phenol] |  |  | 284 | 40 | 100 | 173 | 195 to 196 |  | 
9 | CC1c2ccc(F)cc2-c2ccc(F)cc2N1S(=O)(=O)c1cccc(O)c1 (stereo not drawn) [Example 115, 3-[(3,9-Difluoro-6-methylphenanthridin-5(6H)-yl)sulfonyl]phenol] |  |  | 102 | 16 | 102 | 81 | 167.2 to 173 |  | 
10 | CC1c2ccc(F)cc2-c2cc(F)ccc2N1S(=O)(=O)c1ccc(O)cc1 (stereo not drawn) [Example 116, 4-[(2,9-Difluoro-6-methylphenanthridin-5(6H)-yl)sulfonyl]phenol] |  |  | 326 | 23 | 99 | 130 | 194 to 196 |  | 
11 | CC1c2ccc(F)cc2-c2cc(F)ccc2N1S(=O)(=O)c1cccc(O)c1 (stereo not drawn) [Example 117, 3-[(2,9-Difluoro-6-methylphenanthridin-5(6H)-yl)sulfonyl]phenol] |  |  | 40 | 8 | 101 | 104 | 165.5 to 171 |  | 
12 | CC1c2ccccc2-c2ccc(Cl)cc2N1S(=O)(=O)c1cccc(O)c1 (stereo not drawn) [Example 118, 3-[(3-Chloro-6-methylphenanthridin-5(6H)-yl)sulfonyl]phenol] |  |  |  | -16 | 103 | 96 | 215 |  | 
13 | C[C@@H]1c2ccccc2-c2ccc(Cl)cc2N1S(=O)(=O)c1cccc(O)c1 [Example 119, 3-{[(6R)-3-Chloro-6-methylphenanthridin-5(6H)-yl]sulfonyl}phenol] |  |  |  | 21 | 35 | 18 | 220.9 to 223 |  | 
14 | CC1c2ccccc2-c2ccc(Cl)cc2N1S(=O)(=O)c1ccc(O)cc1 (stereo not drawn) [Example 121, 4-[(3-Chloro-6-methylphenanthridin-5(6H)-yl)sulfonyl]phenol] |  |  | 107 | 29 | 113 | 30 | 204 |  | 
15 | C[C@H]1c2ccccc2-c2ccc(Cl)cc2N1S(=O)(=O)c1ccc(O)cc1 [Example 123, 4-{[(6S)-3-Chloro-6-methylphenanthridin-5(6H)-yl]sulfonyl}phenol] |  |  |  | 2 | 154 | 7 | 213.5 to 220 |  | 
16 | C[C@@H]1c2ccccc2-c2ccc(Cl)cc2N1S(=O)(=O)c1ccc(O)cc1O [Example 124, 4-{[(6R)-3-Chloro-6-methylphenanthridin-5(6H)-yl]sulfonyl}benzene-1,3-diol] |  |  | 624 | 4 | 19 | 224 | 178.2 to 182 |  | 
17 | C[C@H]1c2cc(F)ccc2-c2ccccc2N1S(=O)(=O)c1ccc(OS(N)(=O)=O)cc1 [Example 126, 4-{[(6S)-8-Fluoro-6-methylphenanthridin-5(6H)-yl]sulfonyl}phenyl sulfamate] |  |  | 661 | 61 | 99 | 40 | 166.5 to 167 |  | 
18 | C[C@]12CC[C@@H]3c4ccc(O)cc4CC[C@H]3[C@@H]1CC[C@@H]2O [Example E2, 17β-estradiol, reference compound] |  | ~1 |  |  |  | ~1 |  |  | 5.8
